Experiment [1] concerns the target T1, Ribosomal protein S6 kinase alpha-3 (Homo sapiens, UniProt P51812). Nature of the experiment: Inhibition of PMA-stimulated RSK2 phosphorylation in HEK293 cells after 1 hr by Western blotting analysis. The experiment is classed as cell-based.
The target of experiment [2] is T1, Ribosomal protein S6 kinase alpha-3. Nature of the experiment: Inhibition of His6-tagged RSK2 C-terminal domian expressed in Escherichia coli after 30 mins.
The subject of experiment [3] is HEK293. Nature of the experiment: Inhibition of RSK-mediated rpS6 phosphorylation at Ser235 residues in human PMA-stimulated HEK 293 cells at 30 uM after 1 hr by Western blotting. Format: cell-based.
For experiment [4], the system named is HEK293. The experiment in a line: Inhibition of RSK-mediated rpS6 phosphorylation at Ser236 residues in human PMA-stimulated HEK 293 cells at 30 uM after 1 hr by Western blotting. Format: cell-based.

SMILES strings stand for the structures.

T1 sequence (P51812 whole entry): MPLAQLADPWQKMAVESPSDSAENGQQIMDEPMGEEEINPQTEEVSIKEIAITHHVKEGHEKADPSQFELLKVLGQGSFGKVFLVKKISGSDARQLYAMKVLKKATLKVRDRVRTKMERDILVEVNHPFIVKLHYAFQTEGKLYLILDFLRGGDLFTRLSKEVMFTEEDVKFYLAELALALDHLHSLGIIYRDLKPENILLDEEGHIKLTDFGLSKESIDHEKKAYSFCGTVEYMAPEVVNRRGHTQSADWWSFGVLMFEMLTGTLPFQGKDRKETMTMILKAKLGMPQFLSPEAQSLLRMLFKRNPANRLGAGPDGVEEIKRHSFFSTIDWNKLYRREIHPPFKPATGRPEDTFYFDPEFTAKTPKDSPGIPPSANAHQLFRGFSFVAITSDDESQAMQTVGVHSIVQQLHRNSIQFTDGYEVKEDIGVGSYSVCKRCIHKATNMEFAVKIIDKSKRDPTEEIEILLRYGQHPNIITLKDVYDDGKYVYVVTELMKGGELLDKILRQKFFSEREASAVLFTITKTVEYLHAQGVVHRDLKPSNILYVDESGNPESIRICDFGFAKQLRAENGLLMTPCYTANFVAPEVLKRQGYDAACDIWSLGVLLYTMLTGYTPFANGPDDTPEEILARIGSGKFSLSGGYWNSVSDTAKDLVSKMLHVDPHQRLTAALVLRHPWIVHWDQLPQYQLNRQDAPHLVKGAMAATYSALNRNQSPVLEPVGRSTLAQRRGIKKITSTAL

Consider `CC1=CC(C)=[N+]2C1=Cc1ccc(CCC(=O)NCCCCCC(=O)NCCCCNC(=O)OCCCn3c(C(=O)CF)c(-c4ccc(C)cc4)c4c(N)ncnc43)n1[B-]2(F)F`, for which the EC50 in experiment [1] came to 10 µM. In experiment [2], this compound gave an IC50 of 1.7 µM.

In the case of `CO[C@H]1C[C@@H]2CC[C@@H](C)[C@@](O)(O2)C(=O)C(=O)N2CCCC[C@H]2C(=O)O[C@H]([C@H](C)C[C@@H]2CC[C@@H](O)[C@H](OC)C2)CC(=O)[C@H](C)/C=C(\C)[C@@H](O)[C@@H](OC)C(=O)[C@H](C)C[C@H](C)/C=C/C=C/C=C/1C`, the inhibition in experiment [3] and in experiment [4] was 76% each time.

Values taken from ChEMBL document CHEMBL1221198 (Nat Chem Biol, 2007).
